Active and inactive are the calls of the source.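 How the source made its calls: active means IC50 at or below 20 µM; inactive means the rest.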
test system: 697 B-cell NF-kB luciferase reporter, PMA/ionomycin, 16 h; assay: NF-kB reporter suppression in 697 B cells – T-cell screen hits, luminescence, SAR follow-up (AID 504487)

IC50	Compound
> 79 µM (inactive)	CCCC(=O)NC(c1ccc(C)cc1)c1ccc2cccnc2c1O (stereo not drawn)
> 79 µM (inactive)	CCCC(=O)NC(c1ccccc1OC)c1ccc2cccnc2c1O (stereo not drawn)
> 79 µM (inactive)	CCCC(=O)NC(c1ccc(Cl)cc1)c1ccc2cccnc2c1O (stereo not drawn)
> 79 µM (inactive)	CCCC(=O)NC(c1ccccc1)c1ccc2cccnc2c1O (stereo not drawn)
> 79 µM (inactive)	COc1ccc(C(NC(=O)c2ccccc2)c2ccc3cccnc3c2O)cc1 (stereo not drawn)
> 79 µM (inactive)	CCCC(=O)NC(c1ccc(OC)cc1)c1ccc2cccnc2c1O (stereo not drawn)
> 79 µM (inactive)	COc1ccc(C(NC(C)=O)c2ccc3cccnc3c2O)cc1 (stereo not drawn)
> 79 µM (inactive)	COc1cccc(C(=O)Nc2ccc3[nH]c(-c4cccc(OC)c4)cc(=O)c3c2)c1

Reference: PubChem BioAssay AID504487 (Sanford-Burnham Center for Chemical Genomics, 2011)
